Measurements from US20220241422A1, “DRUG DELIVERY COMPOSITION AND PHARMACEUTICAL COMPOSITION” (Nihon University, priority 2019, published 2022).

Key:
[1] = system: ALS model mice (G93A SOD1 transgenic mouse); assay: Oral administration test for NAC in ALS model mice (Rota-Rod motor function, survival time); assay type: in vivo; conditions: oral administration from 15 weeks of age, vs water-administered group
From the text: NAC is considered to be effective for treating ALS as a result of its effect of removing active oxygen. Thus, NAC was used as a test drug for ALS treatment.
As a test animal, G93A SOD1 transgenic mouse (G93A), which is one of the ALS model animals, was used. […] The research group of the present inventors has already reported the characteristics of the change (progression) in the motor dysfunction of this G93A (Miyagisi H et al., J Pharmacol Sci., 118, 225-236 (2012)).
NAC was orally administered to G93A from 15 weeks of age (105 days of age) after the onset of ALS, and the motor function and the survival time were examined. Water was orally administered as a negative control.
The motor function was evaluated using Rota-Rod (Muromachi Kikai Co., Ltd.). in order to acclimatize mice to Rota-Rod, mice were trained from 3 weeks (12 weeks of age) before the day of measurement initiation. The rotation speed of Rota-Rod was set to 24 times/minute. The measurement was performed twice a week, and the time (seconds) taken until the mouse fell from Rota-Rod was measured. The cut-off value was set to 300 seconds, while in the case of falling, the average value of three times was used as the score for that day, and measurements were taken up to 133 days after birth.

[2] = system: ALS model mice (G93A); assay: Nasal administration test for NAC/PEG-PCL-Tat in ALS model mice (Rota-Rod motor function); assay type: in vivo, mouse; conditions: nasal administration 105 to 120 days of age, 5 days a week; compared with untreated
Procedure: A drug solution was prepared by dissolving NAC in HEPES buffer solution (pH 7.4) at a concentration of 50 mg/mL.
The drug solution was administered to G93A for a period from 105 days of age (15 weeks of age) after birth to 120 days of age, at a frequency of 5 days a week. […] Under inhalation anesthesia using a mask in which the vicinity of the nostrils could be opened or closed, 2 μL each of the drug solution was alternately administered to the right and left nasal cavities every 30 seconds using a micropipette (see FIG. 3). Only male mice were used for the test, and in principle, administration was performed in the morning (10:00 to 12:00).
The motor function was evaluated using Rota-Rod (Muromachi Kikai Co., Ltd.). In order to acclimatize mice to Rota-Rod, mice were trained from 3 weeks (12 weeks of age) before the day of measurement initiation. The rotation speed of Rota-Rod was set to 24 times/minute. The measurement was performed twice a week, and the time (seconds) taken until the mouse fell from Rota-Rod was measured. The cut-off value was set to 300 seconds, while in the case of falling, the average value of three times was used as the score for that day, and measurements were taken up to 122 days after birth.

CC(=O)N[C@@H](CS)C(=O)O [NAC, N-Acetyl-Cysteine] was tested, and the “motor function (Rota-Rod)” value [1] was “no difference”, the survival time [1] was “no difference” and the “suppression of hypanakinesia (Rota-Rod, FIG. 4A)” value [2] was “hypanakinesia was suppressed”.
